What is called IC50 is the concentration needed to halve the response being measured.

One molecule from patent US20230012570A1, “BICYCLIC COMPOUND USED AS SELECTIVE ANDROGEN RECEPTOR MODULATOR” (MEDSHINE DISCOVERY INC., priority 2019, published 2023) can be followed below.

Test [1] addresses T1, CYP2C19 (Homo sapiens, UniProt P33261).
T1 construct: Mixed human liver microsomes (HLM) were purchased from Corning Inc; tissue Corning Inc. or XenoTech, LLC. or other suppliers; host or cells: pooled human liver microsomes
The experiment in a line: Human liver microsomal CYP inhibition experiment, CYP2C19. Format: in vitro ADME. As to the method:
(§1) Experiment Embodiment 4: Human Liver Microsomal CYP Inhibition Experiment
(§2) The inhibitory effects of the test compound 3A and VK5211 on the activities of human liver microsomal cytochrome P450 isozymes (CYP1A2, CYP2C9, CYP2C19, CYP2D6 and CYP3A4) were determined.
(§3) Mixed human liver microsomes (HLM) were purchased from Corning Inc. (Steuben, New York, USA) or XenoTech, LLC. (Lenexa, Kans., USA) or other suppliers, and were stored at a temperature below −60° C. before use.
(§4) First, the test compound (10.0 mM) was gradient diluted to prepare working solution (100×final concentration), and the concentrations of the working solution were: 5.00, 1.50, 0.500, 0.150, 0.0500, 0.0150, 0.00500 mM, and a working solution of each positive inhibitor of P450 isozymes (CYP1A2, CYP2C9, CYP2C19, CYP2D6, and CYP3A4) and a specific substrate mixture thereof (5 in 1) were prepared at the same time; human liver microsomes stored in a refrigerator at a temperature lower than −60° C. were put on ice to thaw, and when all the human liver microsomes were dissolved, the microsomes were diluted with potassium phosphate buffer (PB) to prepare a working solution of a certain concentration (0.253 mg/mL). […] The concentration of metabolites produced by the probe substrate in the sample was determined by liquid chromatography-tandem mass spectrometry (LC-MS/MS) method. […]

Test [2] has as its target T2, CYP3A4 (Homo sapiens, UniProt P08684).
T2 construct: Mixed human liver microsomes (HLM) were purchased from Corning Inc; tissue Corning Inc. or XenoTech, LLC. or other suppliers; host or cells: pooled human liver microsomes
The experiment in a line: Human liver microsomal CYP inhibition experiment, CYP3A4. Format: in vitro ADME. How it is done: as §1, §2, §3, §4
(In general: Microsomes from liver hold many membrane-bound enzymes, among them those of drug oxidation.)

Structures are written as SMILES.

T1 sequence (P33261 whole entry): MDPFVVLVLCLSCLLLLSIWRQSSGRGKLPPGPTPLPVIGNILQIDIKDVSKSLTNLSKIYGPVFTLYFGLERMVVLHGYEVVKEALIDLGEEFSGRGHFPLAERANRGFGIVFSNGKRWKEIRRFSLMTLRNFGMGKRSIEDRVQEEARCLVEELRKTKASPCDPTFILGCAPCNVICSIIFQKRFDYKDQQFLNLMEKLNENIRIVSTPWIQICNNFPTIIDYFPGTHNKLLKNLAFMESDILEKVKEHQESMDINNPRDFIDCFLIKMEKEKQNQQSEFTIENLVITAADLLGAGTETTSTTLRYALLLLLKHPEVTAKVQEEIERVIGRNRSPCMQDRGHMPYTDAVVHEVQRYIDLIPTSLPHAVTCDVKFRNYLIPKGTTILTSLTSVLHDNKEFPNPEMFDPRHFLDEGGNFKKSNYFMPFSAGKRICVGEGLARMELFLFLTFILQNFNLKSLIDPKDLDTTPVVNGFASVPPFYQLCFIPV
T2 sequence (P08684 whole entry): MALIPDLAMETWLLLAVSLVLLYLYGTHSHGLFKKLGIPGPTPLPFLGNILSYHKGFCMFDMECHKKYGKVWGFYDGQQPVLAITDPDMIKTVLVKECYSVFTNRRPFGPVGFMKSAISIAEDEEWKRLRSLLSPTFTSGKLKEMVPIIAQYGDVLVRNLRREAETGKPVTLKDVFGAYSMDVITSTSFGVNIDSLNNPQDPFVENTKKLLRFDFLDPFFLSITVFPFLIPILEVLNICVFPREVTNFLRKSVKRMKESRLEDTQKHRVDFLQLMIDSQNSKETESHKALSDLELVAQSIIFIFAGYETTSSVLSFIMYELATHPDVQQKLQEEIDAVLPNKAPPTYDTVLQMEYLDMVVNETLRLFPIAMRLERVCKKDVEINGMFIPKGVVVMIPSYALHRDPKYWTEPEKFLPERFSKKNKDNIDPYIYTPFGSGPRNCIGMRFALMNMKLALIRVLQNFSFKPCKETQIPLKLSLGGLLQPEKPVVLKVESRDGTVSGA

Turning to `N#Cc1ccc(N2CC3CC3C2C(O)C(F)(F)F)cc1Cl` (single isomer, unassigned) [Compound 3A], the figures for the concentration for half-maximal inhibition (IC50) in test [1] and in test [2] were 12.1 µM and over 50 µM, respectively.
